What was measured:
[1] = system: K562/ADR human myeloid leukemia cell line; experiment: MTT antiproliferative assay, K562/ADR; type: cell-based
Description: (§1) The antiproliferative activity and cytotoxicity of ester tethered ART-isatin hybrids 7a-u against human myeloid leukemia cell lines (K562 CM-0130 purchased from Procell and K562/ADR AW-CELLS-H0187 purchased from AnWei-sci), human acute lymphoblastic leukemia cell line (CCRF-CEM CL-0058 purchased from Procell) as well as cytotoxicity towards normal human peripheral blood mononuclear cells (PBMCs 230470, purchased from Mingzhoubio) were assessed by 3-(4,5-dimethylthiazol-2-yl)-2,5-diphenyltetrazolium bromide (MTT) assay. The antiproliferative activity was expressed by half maximal inhibitory concentration (IC50) values, which were presented in Table 2 .
(§2) Medium in wells was replaced after 24 h with fresh medium containing the tested compounds in DMSO (1% v/v) and incubated for 72 h. […] 3-(4,5-dimethyl-2-thiazolyl)-2,5-diphenyltetrazolium bromide (MTT) solution (10 µL) was added to each well, and the cultures were incubated for an additional 4 h at 37°C. A further 100 µL of […] was added and incubation continued overnight at 37°C. The absorbance at 540 nm was determined in each well with a 96-well plate reader. The growth of the treated cells was compared with that of untreated cells. Half maximum inhibitory concentration (IC50) is a measurement of the efficacy of a substance in inhibiting a specific biological or biochemical process. […] In this experiment, the dose-response curve constructed by Spss22.0 software was used to calculate the inhibitory effect of the hybrid (0 μM-100 μM) on the activity of leukemia cell lines. Each experiment was performed independently in triplicate with three tests in each, and results were reported as mean inhibitory concentration IC50.

[2] = system: normal human peripheral blood mononuclear cells (PBMCs); experiment: MTT cytotoxicity assay, normal PBMCs; type: cell-based; details: PBMCs vs CCRF-CEM
Description: as §1, with “assay.” for “assay. The antiproliferative activity was expressed by half maximal inhibitory concentration (IC50) values, which were presented in Table 2 .”

[3] = MTT cytotoxicity assay, normal PBMCs; type: cell-based, human; details: normal peripheral blood mononuclear cells (PBMCs); MTT assay, normal human PBMCs
Description: as §1, with “assay.” for “assay. The antiproliferative activity was expressed by half maximal inhibitory concentration (IC50) values, which were presented in Table 2 .”

[4] = system: K562 human myeloid leukemia cell line; experiment: MTT antiproliferative assay, K562; type: cell-based
Description: as §1, with “assay.” for “assay. The antiproliferative activity was expressed by half maximal inhibitory concentration (IC50) values, which were presented in Table 2 .”
as §2

[5] = system: CCRF-CEM human acute lymphoblastic leukemia cell line; experiment: MTT antiproliferative assay, CCRF-CEM; type: cell-based
Description: as §1, with “assay.” for “assay. The antiproliferative activity was expressed by half maximal inhibitory concentration (IC50) values, which were presented in Table 2 .”
as §2

Structure (SMILES) | IC50 [1] [µM] | SI, Selectivity index, IC50(PBMCs)/IC50(CCRF-CEM) [2] | IC50 [3] [µM] | IC50 [4] [µM] | IC50 [5] [µM]
CON=C1C(=O)N(CCC(=O)OC2O[C@@H]3O[C@@]4(C)CC[C@H]5[C@H](C)CC[C@@H]([C@H]2C)[C@@]35OO4)c2ccccc21 (stereo partly drawn) [hybrid 7e, (3R,5aS,6R,8aS,9R,12R,12aR)-3,6,9-trimethyldecahydro-12H-3,12-epoxy[1,2]dioxepino[4,3-i]isochromen-10-yl 3-(3-(methoxyimino)-2-oxoindolin-1-yl)propanoate] | 22.7 | >6.59 | > 100 | 3.78 | 15.2
CON=C1C(=O)N(CCC(=O)OC2O[C@@H]3O[C@@]4(C)CC[C@H]5[C@H](C)CC[C@@H]([C@H]2C)[C@@]35OO4)c2ccc(OC)cc21 (stereo partly drawn) [hybrid 7k, (3R,5aS,6R,8aS,9R,12R,12aR)-3,6,9-trimethyldecahydro-12H-3,12-epoxy[1,2]dioxepino[4,3-i]isochromen-10-yl 3-(5-methoxy-3-(methoxyimino)-2-oxoindolin-1-yl)propanoate] | > 100 | >14.83 | > 100 | > 100 | 6.74
CCON=C1C(=O)N(CCC(=O)OC2O[C@@H]3O[C@@]4(C)CC[C@H]5[C@H](C)CC[C@@H]([C@H]2C)[C@@]35OO4)c2ccc(OC)cc21 (stereo partly drawn) [hybrid 7l, (3R,5aS,6R,8aS,9R,12R,12aR)-3,6,9-trimethyldecahydro-12H-3,12-epoxy[1,2]dioxepino[4,3-i]isochromen-10-yl 3-(5-methoxy-3-(ethoxyimino)-2-oxoindolin-1-yl)propanoate] | > 100 | >5.16 | > 100 | > 100 | 19.4
CON=C1C(=O)N(CCCC(=O)OC2O[C@@H]3O[C@@]4(C)CC[C@H]5[C@H](C)CC[C@@H]([C@H]2C)[C@@]35OO4)c2ccc(F)cc21 (stereo partly drawn) [hybrid 7p, (3R,5aS,6R,8aS,9R,12R,12aR)-3,6,9-trimethyldecahydro-12H-3,12-epoxy[1,2]dioxepino[4,3-i]isochromen-10-yl 4-(3-(methoxyimino)-5-fluoro-2-oxoindolin-1-yl)butanoate] | > 100 | >5.36 | > 100 | 49.8 | 18.6
COc1ccc2c(c1)C(=NOCc1ccccc1)C(=O)N2CCCC(=O)OC1O[C@@H]2O[C@@]3(C)CC[C@H]4[C@H](C)CC[C@@H]([C@H]1C)[C@@]24OO3 (stereo partly drawn) [hybrid 7u, (3R,5aS,6R,8aS,9R,12R,12aR)-3,6,9-trimethyldecahydro-12H-3,12-epoxy[1,2]dioxepino[4,3-i]isochromen-10-yl 4-(3-[(benzyloxy)imino)-5-methoxy-2-oxoindolin-1-yl]butanoate] | > 100 | >40.81 | > 100 | > 100 | 2.45
CCON=C1C(=O)N(CCCC(=O)OC2O[C@@H]3O[C@@]4(C)CC[C@H]5[C@H](C)CC[C@@H]([C@H]2C)[C@@]35OO4)c2ccc(F)cc21 (stereo partly drawn) [hybrid 7q, (3R,5aS,6R,8aS,9R,12R,12aR)-3,6,9-trimethyldecahydro-12H-3,12-epoxy[1,2]dioxepino[4,3-i]isochromen-10-yl 4-(3-(ethoxyimino)-5-fluoro-2-oxoindolin-1-yl)butanoate] | > 100 | >7.85 | > 100 | 16 | 12.7
CCON=C1C(=O)N(CCCC(=O)OC2O[C@@H]3O[C@@]4(C)CC[C@H]5[C@H](C)CC[C@@H]([C@H]2C)[C@@]35OO4)c2ccc(OC)cc21 (stereo partly drawn) [hybrid 7t, (3R,5aS,6R,8aS,9R,12R,12aR)-3,6,9-trimethyldecahydro-12H-3,12-epoxy[1,2]dioxepino[4,3-i]isochromen-10-yl 4-(3-(ethoxyimino)-5-methoxy-2-oxoindolin-1-yl)butanoate] | > 100 | >52.63 | > 100 | > 100 | 1.9

Reference: publication PMC10140581, “Development and evaluation of novel artemisinin-isatin hybrids with potential anti-leukemic cytotoxicity” (Frontiers in Oncology, 2023)
